{"source": "patent US4310518A", "about": "“Cyclic hexapeptide somatostatin analogs” (Merck & Co., Inc., priority 1980, dated 1982)", "key": {"[1]": {"test_system": "growth hormone release from rat pituitary cells", "assay": "In vitro test for the inhibition of growth hormone release in cultured rat pituitary cells", "assay_type": "cell-based", "details": "multiples or fractions of the effect of somatostatin (=1), fiducial limits in parentheses, 4 hours incubation", "procedure": "The instant cyclic hexapeptide analogs of somatostatin are tested and compared with the effects of somatostatin in an in vitro test for the inhibition of growth hormone. The test is described as follows:\nRat pituitaries were isolated according to the procedures of Vale and Grant \"In vitro Pituitary Hormone Secretion Assay for Hypophysiotropic Substances\" in Methods in Enzymology. Vol. XXXVII, eds. O'Malley, B. W. and Hardman, J. G. (Academic Press, Inc., New York) pp. 5-93 (1975).\nAfter 4 days in culture, the cells were washed and incubated for 4 hours in Dulbecco-modified Eagle's medium in the presence or absence of graded doses of each analog of somatostatin. The medium was then collected for subsequent growth hormone determination by a double antibody radioimmunoassay for rat growth hormone.\"\nThe test results for some of the compounds of this invention are recorded below with the results for somatostatin listed first and given the arbitrary value of 1. The results for the instant compounds are given as multiples or fractions of the effect of somatostatin. The numbers in parentheses are the fiducial limits for the number preceding. The first of the instant compounds listed is the compound prepared in Examples 1-5. The compound is written slightly different, however, to conform to the order of the amino acids found in somatostatin."}, "[2]": {"test_system": "pentagastrin evoked gastric secretion", "assay": "Inhibition of pentagastrin evoked gastric secretion in the chronic fistula dog", "assay_type": "in vivo", "details": "Dose 0.8 μg/ml./min., infusion 0-60 min., relative to placebo; for Gastric Secretion % Inhibition Acid Concentration 0-30 / Gastric Secretion % Inhibition Vol. 0-30: 0-30 min; for Gastric Secretion % Inhibition Acid Concentration 30-60 / Gastric Secretion % Inhibition Vol. 30-60: 30-60 min; for Gastric Secretion % Inhibition Acid Concentration 60-90 / Gastric Secretion % Inhibition Vol. 60-90: 60-90 min; for Gastric Secretion % Inhibition Acid Concentration 90-120 / Gastric Secretion % Inhibition Vol. 90-120: 90-120 min; for Gastric Secretion % Inhibition Vol. 0-30 / Gastric Secretion % Inhibition Vol. 30-60 / Gastric Secretion % Inhibition Vol. 60-90 / Gastric Secretion % Inhibition Vol. 90-120: output volume", "procedure": "The effects of the instant cyclichexapeptide analogs of somatostatin are determined by the following procedure.\nCompounds were tested for their ability to inhibit pentagastrin evoked gastric secretion in the chronic fistula dog. Female beagle dogs with a chronic gastric fistula were given pentagastrin (2.5 μg./kg./hour, i.v. from -60 to 120 min.) and gastric outputs were collected via the fistula cannula. Samples were analyzed at 30 minute intervals for volume (ml.) and titratable acid (mEq/L) (Titration to pH 7 with 0.01 N NaOH); total acid output (mEq) was calculated as the production of output volume and acid concentration. Test compounds were infused at a constant rate from 0 to 60 minutes. Data have been expressed as percent change of total acid output relative to a placebo trial in the same animals."}}, "note": "Square brackets hold non-standard residues; d marks the D form. Peptide text beside a SMILES is read from it. NMeF = CN[C@@H](Cc1ccccc1)C(=O)O; NMeI = CC[C@H](C)[C@H](NC)C(=O)O; NMeL = CN[C@@H](CC(C)C)C(=O)O; NMeA = CN[C@@H](C)C(=O)O; dNMeA = CN[C@H](C)C(=O)O; Sar = CNCC(=O)O"}
{"compound": "Cyclo--(N--Me--Ala--Phe--D-Trp-- Lys--The--O--I--Phe)", "values": [{"measurement": "Growth Hormone Release Inhibition In Vitro", "setting": "[1]", "value": "12.1(5.2-23.4)"}]}
{"compound": "C[C@@H](O)[C@@H]1NC(=O)[C@H](CCCCN)NC(=O)[C@@H](Cc2c[nH]c3ccccc23)NC(=O)[C@H](Cc2ccccc2)NC(=O)[C@H](Cc2ccccc2)N(C)C(=O)[C@H](Cc2ccccc2)NC1=O", "note": "[Cyclo(N--Me--Phe--Phe--D-Trp-- Lys--Thr--Phe)] (cyclo(F[NMeF]F[dW]KT))", "values": [{"measurement": "Growth Hormone Release Inhibition In Vitro", "setting": "[1]", "value": "13.3(9.6-18.1)"}]}
{"compound": "Cyclo--(N--Me--Ala--O--Phe--D-Trp-- Lys--Val--L--Trp)", "values": [{"measurement": "Growth Hormone Release Inhibition In Vitro", "setting": "[1]", "value": "22.9(15.0-33.6)"}]}
{"compound": "CC(C)[C@@H]1NC(=O)[C@H](CCCCN)NC(=O)[C@@H](Cc2c[nH]c3ccccc23)NC(=O)[C@H](Cc2ccc(O)cc2)NC(=O)[C@H](C)N(C)C(=O)[C@H](Cc2c[nH]c3ccccc23)NC1=O", "note": "[Cyclo--(N--Me--Ala--Tyr--D-Trp-- Lys--Val--Trp)] (cyclo(KVW[NMeA]Y[dW]))", "values": [{"measurement": "Growth Hormone Release Inhibition In Vitro", "setting": "[1]", "value": "26.9(17.2-40.3)"}]}
{"compound": "CC[C@H](C)[C@H]1C(=O)N[C@@H](Cc2ccccc2)C(=O)N[C@H](Cc2c[nH]c3ccccc23)C(=O)N[C@@H](CCCCN)C(=O)N[C@@H]([C@@H](C)O)C(=O)N[C@@H](Cc2ccccc2)C(=O)N1C", "note": "[Cyclo(N--Me--Ile--Phe--D-Trp-- Lys--Thr--Phe)] (cyclo(F[NMeI]F[dW]KT))", "values": [{"measurement": "Growth Hormone Release Inhibition In Vitro", "setting": "[1]", "value": "1.86(1.35-2.57)"}]}
{"compound": "CC(C)[C@@H]1NC(=O)[C@H](CCCCN)NC(=O)[C@@H](Cc2c[nH]c3ccccc23)NC(=O)[C@H](Cc2ccc(O)cc2)NC(=O)[C@H](C)N(C)C(=O)[C@H](Cc2ccccc2)NC1=O", "note": "[Cyclo--(N--Me--Ala--Tyr--D-Trp-- Lys--Val--Phe)]", "values": [{"measurement": "Growth Hormone Release Inhibition In Vitro", "setting": "[1]", "value": "52(35-75)"}]}
{"compound": "C[C@H]1C(=O)N[C@@H](Cc2c[nH]cn2)C(=O)N[C@H](Cc2c[nH]c3ccccc23)C(=O)N[C@@H](CCCCN)C(=O)N[C@@H](CO)C(=O)N[C@@H](Cc2ccc(O)cc2)C(=O)N1C", "note": "[Cyclo(N--Me--Ala--His--D-Trp-- Lys--Ser--Tyr)] (cyclo(H[dW]KSY[NMeA]))", "values": [{"measurement": "Growth Hormone Release Inhibition In Vitro", "setting": "[1]", "value": "0.38(0.16-0.75)"}]}
{"compound": "CC(C)[C@@H]1NC(=O)[C@H](CCCCN)NC(=O)[C@@H](Cc2c[nH]c3ccccc23)NC(=O)[C@H](Cc2ccc(O)cc2)NC(=O)[C@H](C)N(C)C(=O)[C@@H](Cc2ccccc2)NC1=O", "note": "[Cyclo--(N--Me--Ala--Tyr--D-Trp-- Lys--Val--D-Phe)]", "values": [{"measurement": "Growth Hormone Release Inhibition In Vitro", "setting": "[1]", "value": "5.0(3.12-8.17)"}]}
{"compound": "C[C@H]1C(=O)N[C@@H](Cc2c[nH]cn2)C(=O)N[C@H](Cc2c[nH]c3ccccc23)C(=O)N[C@@H](CCCCN)C(=O)N[C@@H](CO)C(=O)N[C@@H](Cc2c[nH]c3ccccc23)C(=O)N1C", "note": "[Cyclo--(N--Me--Ala--His--D-Trp-- Lys--Ser--Trp)] (cyclo(H[dW]KSW[NMeA]))", "values": [{"measurement": "Growth Hormone Release Inhibition In Vitro", "setting": "[1]", "value": "1.45(0.9-2.06)"}]}
{"compound": "C[C@@H](O)[C@@H]1NC(=O)[C@H](CCCCN)NC(=O)[C@@H](Cc2c[nH]c3ccccc23)NC(=O)[C@H](Cc2ccccc2)NC(=O)[C@H](C)N(C)C(=O)[C@H](Cc2ccccc2)NC1=O", "note": "[Cyclo(D-Trp-Lys-Thr-Phe-N-Me-Ala-Phe)] (cyclo(F[NMeA]F[dW]KT))", "values": [{"measurement": "Growth Hormone Release Inhibition In Vitro", "setting": "[1]", "value": "4.38(2.15-11.90)"}, {"measurement": "Gastric Secretion % Inhibition Acid Concentration 0-30", "setting": "[2]", "value": 15, "unit": "%"}, {"measurement": "Gastric Secretion % Inhibition Acid Concentration 30-60", "setting": "[2]", "value": 41, "unit": "%"}, {"measurement": "Gastric Secretion % Inhibition Acid Concentration 60-90", "setting": "[2]", "value": 47, "unit": "%"}, {"measurement": "Gastric Secretion % Inhibition Acid Concentration 90-120", "setting": "[2]", "value": 48, "unit": "%"}, {"measurement": "Gastric Secretion % Inhibition Vol. 0-30", "setting": "[2]", "value": 91, "unit": "%"}, {"measurement": "Gastric Secretion % Inhibition Vol. 30-60", "setting": "[2]", "value": 92, "unit": "%"}, {"measurement": "Gastric Secretion % Inhibition Vol. 60-90", "setting": "[2]", "value": 90, "unit": "%"}, {"measurement": "Gastric Secretion % Inhibition Vol. 90-120", "setting": "[2]", "value": 84, "unit": "%"}]}
{"compound": "C[C@@H]1C(=O)N[C@@H](Cc2ccccc2)C(=O)N[C@H](Cc2c[nH]c3ccccc23)C(=O)N[C@@H](CCCCN)C(=O)N[C@@H]([C@@H](C)O)C(=O)N[C@@H](Cc2ccccc2)C(=O)N1C", "note": "[Cyclo(N--Me--D-Ala-- Phe--D-Trp-- Lys--Thr--Phe)] (cyclo(F[dNMeA]F[dW]KT))", "values": [{"measurement": "Growth Hormone Release Inhibition In Vitro", "setting": "[1]", "value": "2.13(0.83-6.00)"}, {"measurement": "Gastric Secretion % Inhibition Acid Concentration 0-30", "setting": "[2]", "value": 12, "unit": "%"}, {"measurement": "Gastric Secretion % Inhibition Acid Concentration 30-60", "setting": "[2]", "value": 34, "unit": "%"}, {"measurement": "Gastric Secretion % Inhibition Acid Concentration 60-90", "setting": "[2]", "value": 9, "unit": "%"}, {"measurement": "Gastric Secretion % Inhibition Acid Concentration 90-120", "setting": "[2]", "value": 0, "unit": "%"}, {"measurement": "Gastric Secretion % Inhibition Vol. 0-30", "setting": "[2]", "value": 50, "unit": "%"}, {"measurement": "Gastric Secretion % Inhibition Vol. 30-60", "setting": "[2]", "value": 84, "unit": "%"}, {"measurement": "Gastric Secretion % Inhibition Vol. 60-90", "setting": "[2]", "value": 0, "unit": "%"}, {"measurement": "Gastric Secretion % Inhibition Vol. 90-120", "setting": "[2]", "value": 0, "unit": "%"}]}
{"compound": "C[C@@H](O)[C@@H]1NC(=O)[C@H](CCCCN)NC(=O)[C@@H](Cc2c[nH]c3ccccc23)NC(=O)[C@H](Cc2ccccc2)NC(=O)CN(C)C(=O)[C@H](Cc2ccccc2)NC1=O", "note": "[Cyclo--(Sar--Phe--D-Trp-- Lys--Thr--Phe)] (cyclo(F[Sar]F[dW]KT))", "values": [{"measurement": "Growth Hormone Release Inhibition In Vitro", "setting": "[1]", "value": "1.47(0.93-2.3)"}]}
{"compound": "CC(C)C[C@H]1C(=O)N[C@@H](Cc2ccccc2)C(=O)N[C@H](Cc2c[nH]c3ccccc23)C(=O)N[C@@H](CCCCN)C(=O)N[C@@H]([C@@H](C)O)C(=O)N[C@@H](Cc2ccccc2)C(=O)N1C", "note": "[Cyclo(N--Me--Leu--Phe--D-Trp-- Lys--Thr--Phe)] (cyclo(F[NMeL]F[dW]KT))", "values": [{"measurement": "Growth Hormone Release Inhibition In Vitro", "setting": "[1]", "value": "0.49(0.19-0.98)"}]}
{"compound": "Cyclo--(N--Me--OABU--Phe--D-Trp-- Lys--Thr--Phe)", "values": [{"measurement": "Growth Hormone Release Inhibition In Vitro", "setting": "[1]", "value": "24.6(15.3-46.5)"}]}
{"compound": "Cyclo--(N--Me--Ala--O--I--Phe--D-Trp-- Lys--Val--Phe)", "values": [{"measurement": "Growth Hormone Release Inhibition In Vitro", "setting": "[1]", "value": "13.9(9.5-20.0)"}]}
